The record followed here is patent US9802895B2, “Indole and benzimidazolecarboxamides as insecticides and acaricides” (BAYER CROPSCIENCE AKTIENGESELLSCHAFT, priority 2014, dated 2017).

The test system of data set [1] is caterpillars of the armyworm (Spodoptera frugiperda). Put plainly: Spodoptera frugiperda spray test (SPODFR). In kind it is in vivo. Particulars: for efficacy: 100 g/ha, spray, after 7 days. As for the experimental part:
Spodoptera frugiperda—Spray Test (SPODFR) Solvent: 78.0 parts by weight of acetone • • 1.5 parts by weight of dimethylformamide Emulsifier: alkylaryl polyglycol ether To produce a suitable active compound formulation, 1 part by weight of active compound is dissolved using the specified parts by weight of solvent and made up with water containing an emulsifier concentration of 1000 ppm until the desired concentration is attained. To produce further test concentrations, the preparation is diluted with emulsifier-containing water. Leaf discs of maize (Zea mays) are sprayed with an active compound formulation of the desired concentration and, after drying, populated with caterpillars of the armyworm (Spodoptera frugiperda). After 7 days, the efficacy in % is determined 100% means that all the caterpillars have been killed; 0% means that no caterpillars have been killed. Spodoptera frugiperda—Spray Test (SPODFR) Solvent: 78.0 parts by weight of acetone • • 1.5 parts by weight of dimethylformamide Emulsifier: alkylaryl polyglycol ether To produce a suitable active compound formulation, 1 part by weight of active compound is dissolved using the specified parts by weight of solvent and made up with water containing an emulsifier concentration of 1000 ppm until the desired concentration is attained. To produce further test concentrations, the preparation is diluted with emulsifier-containing water. Leaf discs of maize (Zea mays) are sprayed with an active compound formulation of the desired concentration and, after drying, populated with caterpillars of the armyworm (Spodoptera frugiperda). After the desired period of time, the efficacy in % is determined. 100% means that all the caterpillars have been killed; 0% means that no caterpillars have been killed.

Data set [2] relates to engorged adult female cattle ticks (Boophilus microplus). Put plainly: Boophilus microplus injection test (BOOPMI inj). The data set is classed as in vivo. Particulars: assessed after 7 days. As for the experimental part: Boophilus microplus Injection Test (BOOPMI inj) Solvent: dimethyl sulphoxide To produce a suitable active compound formulation, 10 mg of active compound are mixed with 0.5 ml of solvent and the concentrate is diluted with solvent to the desired concentration. 1 μl of the active compound solution is injected into the abdomen of 5 engorged adult female cattle ticks (Boophilus microplus). The animals are transferred into dishes and kept in a climate-controlled room. The efficacy is assessed after 7 days by laying of fertile eggs. Eggs which are not visibly fertile are stored in a climate-controlled cabinet until the larvae hatch after about 42 days. An efficacy of 100% means that none of the ticks has laid any fertile eggs; 0% means that all the eggs are fertile.

Data set [3] concerns larvae of the mustard beetle (Phaedon cochleariae). Put plainly: Phaedon cochleariae spray test (PHAECO). In kind it is in vivo. Particulars: 100 g/ha, after 7 days. As for the experimental part: Phaedon cochleariae—Spray Test (PHAECO)
(§1) Solvent: 78.0 parts by weight of acetone • • 1.5 parts by weight of dimethylformamide
(§2) Emulsifier: alkylaryl polyglycol ether
(§3) To produce a suitable active compound formulation, 1 part by weight of active compound is dissolved using the specified parts by weight of solvent and made up with water containing an emulsifier concentration of 1000 ppm until the desired concentration is attained. To produce further test concentrations, the preparation is diluted with emulsifier-containing water.
After 7 days, the efficacy in % is determined. 100% means that all the beetle larvae have been killed; 0% means that no beetle larvae have been killed.

For data set [4], the system named is adult cat fleas (Ctenocephalides felis). In words: Ctenocephalides felis oral test (CTECFE). The data set is classed as in vivo. Conditions: 100 ppm, oral in cattle blood, after 2 days. On the procedure: Ctenocephalides felis-Oral Test ([…]) Solvent: dimethyl sulphoxide To produce a suitable active compound formulation, 10 mg of active compound are mixed with 0.5 ml of dimethyl sulphoxide. Dilution with citrated cattle blood gives the desired concentration. About 20 unfed adult cat fleas (Ctenocephalides felis) are placed into a chamber which is closed at the top and bottom with gauze. A metal cylinder whose bottom end is closed with parafilm is placed onto the chamber. The cylinder contains the blood/active compound preparation, which can be imbibed by the fleas through the parafilm membrane. After 2 days, the kill in % is determined 100% means that all of the fleas have been killed; 0% means that none of the fleas have been killed.

The subject of data set [5] is greenhouse red spider mite (Tetranychus urticae). Put plainly: Tetranychus urticae spray test, OP-resistant (TETRUR). The data set is classed as in vivo. Conditions: for efficacy: 100 g/ha, spray, after 6 days. On the procedure: Tetranychus urticae—Spray Test, OP-Resistant (TETRUR)
as §1, §2, §3
Discs of bean leaves (Phaseolus vulgaris) infested by all stages of the greenhouse red spider mite (Tetranychus urticae) are sprayed with an active compound formulation of the desired concentration.
After 6 days, the efficacy in % is determined 100% means that all the spider mites have been killed; 0% means that none of the spider mites have been killed.
Tetranychus urticae—Spray Test; OP-Resistant (TETRUR)
After the desired period of time, the efficacy in % is determined 100% means that all the spider mites have been killed; 0% means that none of the spider mites have been killed.

Data set [6] relates to L2 larvae of the banded cucumber beetle (Diabrotica balteata). Put plainly: Diabrotica balteata drench test (DIABBA). The data set is classed as in vivo. Particulars: 8 dat. On the procedure: Diabrotica balteata—Drench Test (DIABBA) Solvent: 7 parts by weight of dimethylformamide Emulsifier: 2 parts by weight of alkylaryl polyglycol ether To produce a suitable active compound formulation, 1 part by weight of active compound is mixed with the specified amounts of solvent and emulsifier, and the concentrate is diluted with water to the desired concentration, it being necessary to include the volume of soil which is drenched in the calculation. It should be ensured that a concentration of 40 ppm of emulsifier in the soil is not exceeded. To produce further test concentrations, water is used for dilution. […] After one day, 25 L2 larvae of the banded cucumber beetle (Diabrotica balteata) are added. After 8 days, the efficacy in % is determined 100% means that all 5 plants have germinated and grown; 0% means that none of the plants has emerged.

Data set [7] deals with L1 larvae of the Australian sheep blowfly (Lucilia cuprina). In words: Lucilia cuprina test (LUCICU). In kind it is in vivo. Conditions: 100 ppm, after 2 days. On the procedure: Lucilia cuprina Test (LUCICU) Solvent: dimethyl sulphoxide To produce a suitable active compound formulation, 10 mg of active compound are mixed with 0.5 ml of dimethyl sulphoxide, and the concentrate is diluted with water to the desired concentration. About 20 L1 larvae of the Australian sheep blowfly (Lucilia cuprina) are transferred into a test vessel containing minced horsemeat and the active compound preparation of the desired concentration. After 2 days, the kill in % is determined 100% means that all the larvae have been killed; 0% means that none of the larvae have been killed.

The subject of data set [8] is adult houseflies (Musca domestica). Put plainly: Musca domestica test (MUSCDO). Conditions: 100 ppm, after 2 days. In kind it is in vivo. On the procedure:
Musca domestica Test (MUSCDO) Solvent: dimethyl sulphoxide To produce a suitable active compound formulation, 10 mg of active compound are mixed with 0.5 ml of dimethyl sulphoxide, and the concentrate is diluted with water to the desired concentration. Vessels containing a sponge treated with sugar solution and the active compound preparation of the desired concentration are populated with 10 adult houseflies (Musca domestica). After 2 days, the kill in % is determined. 100% means that all of the flies have been killed; 0% means that none of the flies have been killed.

Data set [9] in a line: log P by HPLC (EEC directive 79/831 Annex V.A8). In kind it is physicochemical. Conditions: HPLC, reversed-phase column (C18), 43° C., acidic range pH 2.7. On the procedure: a) The determination of the M^+ by LC-MS in the acidic range is effected at pH 2.7, acetonitrile (contains 0.1% formic acid) and water as eluents; linear gradient from 10% acetonitrile to 95% acetonitrile, instrument: Agilent 1100 LC system, Agilent MSD system, HTS PAL. The log P values reported in the tables and Preparation Examples above were determined in accordance with EEC directive 79/831 Annex V.A8 by HPLC (High Performance Liquid Chromatography) using a reversed-phase column (C18). Temperature 43° C. The calibration is effected with unbranched alkan-2-ones (having 3 to 16 carbon atoms), for which the logP values are known.

Data set [10] has as its system mixed thrips population (Frankliniella occidentalis). In words: Frankliniella occidentalis spray test (FRANOC). The data set is classed as in vivo. Conditions: 7 dat. As for the experimental part: Frankliniella occidentalis—Spray Test (FRANOC) Solvent: 7 parts by weight of dimethylformamide Emulsifier: alkylaryl polyglycol ether To produce a suitable active compound formulation, 1 part by weight of active compound is dissolved using the specified parts by weight of solvent and made up with water containing an emulsifier concentration of 1000 ppm until the desired concentration is attained. To produce further test concentrations, the preparation is diluted with emulsifier-containing water. If the addition of ammonium salts or/and penetrants is required, these are each added in a concentration of 1000 ppm to the formulation solution. Bush bean plants (Phaseolus vulgaris) are sprayed with an active compound preparation of the desired concentration. After drying, the treated plants are infected with a mixed thrips population (Frankliniella occidentalis). After the desired period of time, the plant-protective efficacy in % is determined. 100% means that no damage is evident; 0% means that the damage to the treated plant corresponds to that of the untreated control.

The structures appear in SMILES notation.

Turning to `CCn1c(C(=O)NC(c2cc(Cl)cc(C(F)(F)F)c2)C(F)(F)F)cc2cc(C(=O)NC3(C(N)=S)CC3)c(Cl)cc21` (centres unmarked) [I-22], the efficacy in data set [1], in data set [3] and in data set [5] was 100% each time. Moreover, the “% efficacy” value came out at 100% in [1] (SPODFR, 0.8 g/ha, 7 dat); 100% in [1] (SPODFR, 4 g/ha, 7 dat); 100% in [5] (TETRUR, 4 g/ha, 6 dat); 100% in data set [5] (TETRUR, 20 g/ha, 6 dat); 50% in data set [6] (4 ppm); 100% in data set [6] (20 ppm). Also, the “efficacy (laying of fertile eggs)” value in [2] was 100%. Besides, the “efficacy (kill in %)” value in [4], in [7] and in data set [8] was 100% in each case. Moreover, the log P (commonly a log measure of how a compound divides between an organic and an aqueous phase) in data set [9] came out at 4.11.

For the compound `CCn1c(C(=O)NC(c2cccc(C(F)(F)F)c2)C(F)(F)F)cc2cc(C(=O)NC3(C(N)=S)CC3)c(Cl)cc21` (centres unmarked) [reference compound], the Emax at 0.8 g/ha in data set [1] (Spodoptera frugiperda, 168 h, SPODFR, 0.8 g/ha, 7 dat, read-out: % efficacy) was 33%. This compound returned a % efficacy (mortality) at a single application rate at 4 g/ha in [1] (Spodoptera frugiperda, 168 h, SPODFR, 4 g/ha, 7 dat) of 100%. Also, the Emax at 0.8 ppm in [10] (Thrips, 168 h, 0.8 ppm, read-out: % efficacy (plant-protective)) stood at 60%. Also, the Emax at 4 ppm in data set [10] (Thrips, 168 h, 4 ppm, read-out: % efficacy (plant-protective)) is 98%; in [6] (Diabrotica balteata, soil, 192 h, 4 ppm, read-out: % efficacy), 70%. For the same compound, the Emax at 4 g/ha in [5] (Tetranychus urticae, 144 h, TETRUR, 4 g/ha, 6 dat, read-out: % efficacy) came to 70%. The Emax at 20 g/ha in data set [5] (Tetranychus urticae, 144 h, TETRUR, 20 g/ha, 6 dat, read-out: % efficacy) was 100%. In addition, the Emax at 20 ppm in [6] (Diabrotica balteata, soil, 192 h, 20 ppm, read-out: % efficacy) stood at 60%.

Take `CCn1c(C(=O)NC(c2cc(F)c(Cl)c(F)c2F)C(F)(F)F)cc2cc(C(=O)NC3(C(N)=S)CC3)c(Cl)cc21` (centres unmarked) [I-31]: the efficacy in data set [1], in data set [3] and in data set [5] was 100% each time. The “efficacy (laying of fertile eggs)” value in data set [2] is 100%. The “efficacy (kill in %)” value in data set [4], in data set [7] and in data set [8] was 100% each time. For the same compound, in data set [9], the lipophilicity (log P) came out at 4.02.

In the case of `CCn1c(C(=O)NC(c2ccc(Cl)c(C(F)(F)F)c2)C(F)(F)F)cc2cc(C(=O)NC3(C(N)=S)CC3)c(Cl)cc21` (centres unmarked) [I-07], the efficacy in [1], in data set [3] and in [5] was 100% in each case. Also, the “% efficacy” value is listed as 67% in [1] (SPODFR, 0.8 g/ha, 7 dat) and 100% in [1] (SPODFR, 4 g/ha, 7 dat). Moreover, the “efficacy (laying of fertile eggs)” value in [2] amounted to 100%. In addition, the “efficacy (kill in %)” value in data set [4], in [7] and in [8] was 100% throughout. The lipophilicity (log P) in data set [9] is reported as 3.96.

On to `Cn1c(C(=O)NC(c2ccc(Cl)c(C(F)(F)F)c2)C(F)(F)F)cc2cc(C(=O)NC3(C(N)=S)CC3)c(Cl)cc21` (centres unmarked) [I-16], for which the efficacy in data set [1], in [3] and in data set [5] was 100% in each case. The “efficacy (laying of fertile eggs)” value in [2] is 100%. Further, the “% efficacy (plant-protective)” value in [10] (0.8 ppm) and in data set [10] (4 ppm) was 90% throughout. In addition, the “efficacy (kill in %)” value in data set [4], in data set [7] and in [8] was 100% each time. Moreover, the “% efficacy” value in data set [6] (4 ppm) is 50%; in data set [6] (20 ppm), 100%. Besides, the “log P” value in data set [9] came out at 3.70.

Take `CCn1c(C(=O)NC(c2ccc(F)c(C(F)(F)F)c2)C(F)(F)F)cc2cc(C(=O)NC3(C(N)=S)CC3)c(Cl)cc21` (centres unmarked) [I-03]: the figures for the efficacy in data set [1], in [3] and in data set [5] were 100%, 100% and 90%, respectively. In addition, the “% efficacy” value in data set [1] (SPODFR, 0.8 g/ha, 7 dat) is 100%; in [1] (SPODFR, 4 g/ha, 7 dat) it was 100%. In data set [2], the “efficacy (laying of fertile eggs)” value came out at 100%. For the same compound, the “efficacy (kill in %)” value in data set [4], in data set [7] and in data set [8] was 100% each time. Further, the “log P” value in data set [9] worked out at 3.70.
